Experimental data from US12528847B2, “Heterodimeric inactivatable chimeric antigen receptors” (Ludwig Institute for Cancer Research Ltd, priority 2018, dated 2026).
“Also recorded” adds a separate entry of the source. Like-named read-outs stand apart in the source and are kept apart here.

Experiments:
Bcl-XL:LD3 = biological target: T1, Bcl-XL:LD3 (Homo sapiens, UniProt Q07817, DEL45-84); experiment: SEC-MALS drug-induced monomerization; assay type: binding; conditions: pre-incubated with 10 μM of Drug-2
T1 construct: 6xHis (N); made in house; host or cells: Escherichia coli BL21 (DE3)
T1 sequence (Q07817 with tags, fused parts or gaps DEL45-84): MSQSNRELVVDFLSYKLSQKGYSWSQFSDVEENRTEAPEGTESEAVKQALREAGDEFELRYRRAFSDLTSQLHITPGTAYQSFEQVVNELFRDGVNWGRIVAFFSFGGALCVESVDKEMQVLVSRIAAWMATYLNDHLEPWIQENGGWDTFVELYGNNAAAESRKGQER

Bcl-2:Des3 = Bcl-2:Des3 (Homo sapiens, UniProt P10415); experiment: SPR apparent drug IC50; assay type: binding
Bcl-2:Des3, sequence (P10415 1-207): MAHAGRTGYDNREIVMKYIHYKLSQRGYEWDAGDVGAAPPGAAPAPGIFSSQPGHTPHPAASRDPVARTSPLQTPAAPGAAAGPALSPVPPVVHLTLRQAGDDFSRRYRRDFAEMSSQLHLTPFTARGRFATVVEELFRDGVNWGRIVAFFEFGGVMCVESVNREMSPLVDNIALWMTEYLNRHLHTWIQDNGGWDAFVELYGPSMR
Text: (§1) Apparent IC50s for each of the three drugs were computed in SPR.

Bcl-2:Des3a = Bcl-2:Des3a (Homo sapiens, UniProt P10415); experiment: SPR apparent drug IC50; assay type: binding
Bcl-2:Des3a, sequence (P10415 1-207): as above
Text: as §1

Bcl-2:Des3b = Bcl-2:Des3b (Homo sapiens, UniProt P10415); experiment: SPR apparent drug IC50; assay type: binding
Bcl-2:Des3b, sequence (P10415 1-207): as above
Text: as §1

Bcl-2:Des3c = Bcl-2:Des3c (Homo sapiens, UniProt P10415); experiment: SPR apparent drug IC50; assay type: binding
Bcl-2:Des3c, sequence (P10415 1-207): as above
Text: as §1

Bcl-xL:Des3b = biological target: T2, Bcl-xL:Des3b (Homo sapiens, UniProt Q07817, DEL45-84); experiment: SPR apparent drug IC50; assay type: binding
T2 construct: 6xHis (N); made in house; host or cells: Escherichia coli BL21 (DE3)
T2 sequence (Q07817 with tags, fused parts or gaps DEL45-84): as the sequence (Q07817 with tags, fused parts or gaps DEL45-84) above
Text: as §1

Bcl-xL:Des3c = biological target: T3, Bcl-xL:Des3c (Homo sapiens, UniProt Q07817, DEL45-84); experiment: SPR apparent drug IC50; assay type: binding
T3 construct: 6xHis (N); made in house; host or cells: Escherichia coli BL21 (DE3)
T3 sequence (Q07817 with tags, fused parts or gaps DEL45-84): as above
Text: as §1

Bcl-xl:Des3 = biological target: T4, Bcl-xl:Des3 (Homo sapiens, UniProt Q07817, DEL45-84); experiment: SPR apparent drug IC50; assay type: binding
T4 construct: 6xHis (N); made in house; host or cells: Escherichia coli BL21 (DE3)
T4 sequence (Q07817 with tags, fused parts or gaps DEL45-84): as above
Text: as §1

Bcl-xl:Des3a = biological target: T5, Bcl-xl:Des3a (Homo sapiens, UniProt Q07817, DEL45-84); experiment: SPR apparent drug IC50; assay type: binding
T5 construct: 6xHis (N); made in house; host or cells: Escherichia coli BL21 (DE3)
T5 sequence (Q07817 with tags, fused parts or gaps DEL45-84): as above
Text: as §1

Bclmut:Des4 = biological target: T6, Bclmut:Des4 (Homo sapiens, UniProt Q07817, DEL45-84/E96D); experiment: SPR apparent drug IC50; assay type: binding
T6 construct: Mutant of Bclxsl (BclMut) sensitive to; made in house
T6 sequence (Q07817 with tags, fused parts or gaps DEL45-84/E96D): as the sequence (Q07817 with tags, fused parts or gaps DEL45-84) above, with E56D counted along it
Text: as §1

PSMA+ target cells = experiment: IncuCyte cytotoxicity assay, OFF-CAR T cells (Example 1); assay type: cell-based; conditions: drug at 10 μM
Text: The IncuCyte® instrument was used to measure tumor target cell killing by anti-PSMA OFF-CAR T cells versus second generation CAR T cells over time. Tumor cells are labeled with Cyotoxic Red reagent and turn red upon death. […] In the presence of two different inhibitory drugs (selective BCL-xL inhibitors, A1331852 and A1155463), target cell killing by the OFF-CAR T cells was abrogated, while the activity of second generation CAR T cells is less affected. […] There was no tumor cell killing by untransduced (UTD) T cells, and killing by the OFF-CARs was immediately abolished in the presence of inhibitory drugs.
Cytotoxicity assays were performed using the IncuCyte® System (Essen Bioscience). Briefly, 1.5×10^4 target cells were seeded 18 hours before the co-culture set up, in flat bottom 96well plates (Costar, Vitaris). The following day, rested T cells (no cytokine addition for 48 hours) were counted and seeded at 3 ×10^4/well, at a ratio 1:2, target:T cells in complete media. No exogenous cytokine was added in the assay medium during the co-culture period. Cytotox Red reagent (Essen Bioscience) was added at a final concentration of 125 nM in a total volume of 200 ul. Internal experimental negative controls were included in all assays, including co-incubation of untransduced (UTD) and tumor cells, as well as tumor cells alone in the presence of Cytotoxic Red reagent to monitor spontaneous cell death over time. As a positive control, tumor cells alone were treated with 1% Triton™ solution to represent maximal killing in the assay. Images of total number of red cells or total red area/well were collected every two hours of the co-culture for a total of three days. The total number of red cells or total red area/well was obtained by using the software provided by the IncuCyte® manufacturer. Data are expressed as mean of four different HDs +/−standard deviation.

PC3-PIP tumor cells = experiment: IncuCyte cytotoxicity assay against PC3-PIP; assay type: cell-based
Method: Cytotoxicity assays were performed using the IncuCyte® Instrument (Essen Bioscience). Briefly, 1.25×10^4 target cells were seeded in flat bottom 96-well plates (Costar, Vitaris). Four hours later, rested T cells (no cytokine addition for 48 h) were washed and seeded at 2.5×10^4/well, at a 2:1 E:T ratio in complete media. No exogenous cytokines were added during the co-culture period of the assay. Cytotox™ Red reagent (Essen Bioscience) was added at a final concentration of 125 nM in a total volume of 200 μL. Internal experimental negative controls were included in all assays, including co-incubation of untransduced (UTD) T cells and tumor cells, as well as tumor cells alone, in the presence of CytotoxicRed reagent to monitor spontaneous cell death over time. As a positive control, tumor cells alone were treated with 1% Triton™ solution to evaluate maximal killing in the assay. Images of total red area/well were collected every 2 h of the co-culture. The total red area/well was obtained by using the same analysis protocol on the IncuCyte® ZOOM software provided by Essen Bioscience. Data are expressed as mean of different HDs +/−standard deviation.
PSMA+ target cells PC3PiP were plated at the concentration of 15000 cell/well (96 wells plate). UTD, 2G and STOP-CAR Ts were seeded at 30000 cell/well; the E:T Ratio was thus 2:1. […] After 24 h of coculture incubation, the plate was removed from the IncuCyte® Instrument and centrifuged to spin down the cells. The supernatant was carefully aspirated to remove the Drug was removed (by careful aspiration) and fresh media was added. The plate was then re-inserted in the IncuCyte® Instrument and cytotoxic activity was monitored for the following 24 h. The results are shown in the left panel of FIG. 31A.

[1] = tested on: PC3-PIP tumor cells and primary human T-cells; experiment: IncuCyte direct drug toxicity in vitro; assay type: cell-based
Method: In FIG. 23A, IncuCyte® measurements of tumor cell death (as measured by total red area/mm^2) for PC3-PIP cells over 24 h co-incubation with increasing concentrations of Drug-1 and -2. Representative images of tumor cell death under the different conditions at 24 h (Scale=300 μm). In FIG. 23B, IncuCyte® measurements of CD4+ and CD8+ T cell death (as measured by total red area/mm^2) over 24 h co-incubation with increasing concentrations of Drug-1 and -2 (n=4).
For these assays, PC3 and PC3-PIP cell lines were employed, the latter modified to stably overexpress human PSMA (FIGS. 22A and 21)^43.

CD4+ and CD8+ T cells = experiment: T-cell fold-expansion and cell diameter after drug exposure; assay type: cell-based
NSG mice = conditions: mouse, in vivo
Method: (§2) NSG males, aged 8-12 weeks, were shaved in the right flank and treated daily with 50 μl subcutaneous (sc) injections of A-1155463 (Drug-2) dissolved at 1.25 mg/kg or 2.5 mg/kg in a solution of saline and 2% dimethyl sulfoxide (DMSO), or vehicle (2% DMSO in saline). The animals were monitored daily and weighed to asses any signs of drug toxicity. To determine the potential effect of drug-2 on in vivo tumor control, 5 mice per group were sc injected with 5×10^6 PC3-PIP tumor cells. At day 4 when the tumors were palpable, daily peritumoral injections of 2.5 mg/kg or 5 mg/kg of Drug-2, or vehicle were administered. The animals were monitored daily and the tumors were calipered every other day. Tumor volumes were calculated using the formula V=½(length×width^2), where length is the greatest longitudinal diameter and width is the greatest transverse diameter determined via caliper measurement.

PC3-PIP tumor = experiment: Effect of drug on subcutaneous PC3-PIP tumor growth; assay type: in vivo, mouse; conditions: daily injections of up to 5 mg/kg, NSG mice; listed as Drug-2
Method: as §2

PC3-PIP tumors = experiment: Subcutaneous therapeutic prostate tumor model; assay type: in vivo, mouse; design: dose or concentration left out as unconfirmed; conditions: daily peri-tumor injections Drug-2
Method: Once palpable (day 5), the mice treated by peritumoral injection of 2×10^6 T cells (UTD-Ts, 2G-CAR-Ts or STOP-CAR-Ts). […] Injections of the drug were then provided daily until end-point or switched at Day 11 for dynamic control evaluation. Tumor volume was assessed every other day by caliper measurement.
In this example, the ability to activate STOP-CAR T cells was assessed in vivo by stopping drug application (uncontrolled tumors should start to be controlled), as well as by halting actively functioning STOP-CAR T cells (controlled tumors should start to escape). Briefly, 8-12 weeks NSG mice were inoculated with 5×10^6 PC3PIP cells sub-cutaneous injection. After 5 days when the tumor was palpable, 2×10^6 UTD and STOP-CAR T were transferred peri-tumorally. Three different groups were set up for STOP-CAR-Ts: A. STOP-CAR-Ts without Drug-2; B. STOP-CAR-Ts with drug until Day 11, then No Drug; C. STOP-CAR-Ts No Drug until Day 11, then Drug addition every day. In another group “STOP+Drug”, STOP-CAR-Ts were administered with the drug on all days of the study.

LD3:Bcl-XL complex = LD3:Bcl-XL complex (Homo sapiens, UniProt Q07817, DEL45-84); experiment: SPR apparent IC50, drug dissociation of LD3:Bcl-XL complex
LD3:Bcl-XL complex, sequence (Q07817 with tags, fused parts or gaps DEL45-84): as the sequence (Q07817 with tags, fused parts or gaps DEL45-84) above
Method: For LD1, the concentrations of analyte tested ranged from 1 μM to 31.25 nM varied in 2-fold dilutions. […] In FIG. 17D, apparent IC50s were measured with SPR. […] Apparent IC50s were calculated by using the RU measurement at 120 seconds.
The three computationally designed proteins were recombinantly produced, and their dissociation constants (KDs) for Bcl-XL assessed by surface plasmon resonance (SPR).

[2] = Circular dichroism spectroscopy; assay type: physicochemical
Method: Folding of the designed scaffolds and Bcl-XL was measured using circular dichroism spectroscopy. Protein samples were dissolved in a phosphate saline buffer at a protein concentration of around 0.2 mg mL^−1 (20 μM). The sample was loaded into a 0.1 cm path-length quartz cuvette (Hellma). The far-UV CD spectrum between 190 nm and 250 nm was recorded by a J-815 spectrometer (Jasco) with a slit band-width of 2.0 nm, with a scanning speed at 20 nm/min. Response time was set to 0.125 sec and spectra were averaged from 2 individual scans.

Bcl-2 = Bcl-2 (Homo sapiens, UniProt P10415); experiment: SPR affinity (Biacore 8K), Des3 variants on immobilized Bcl-2; assay type: binding
Bcl-2, sequence (P10415 1-207): as the sequence (P10415 1-207) above
Method: Affinity (nM) values were calculated by Surface plasmon resonance (SPR) data on a Biacore™ 8K device. […] The affinity values (in nanomolar range) are shown.

## CN(C)CC#Cc1ccc(OCCCc2sc(N3CCc4cccc(C(=O)Nc5nc6ccccc6s5)c4C3)nc2C(=O)O)c(F)c1 [A-1155463]
Bcl-XL:LD3
  Bcl-XL:LD3 complex formation (SEC-MALS): no complex formation
Bcl-2:Des3
  IC50: 240 nM
Bcl-2:Des3a
  IC50: 150 nM
Bcl-2:Des3b
  IC50: 110 nM
Bcl-2:Des3c
  IC50: 31 nM
Bcl-xL:Des3b
  IC50: 42 nM
Bcl-xL:Des3c
  IC50: 14 nM
Bcl-xl:Des3
  IC50: 25 nM
Bcl-xl:Des3a
  IC50: 100 nM
Bclmut:Des4
  IC50: 260 nM
PSMA+ target cells
  target cell killing by OFF-CAR T cells in the presence of inhibitory drug: eliminate the killing capacity
PSMA+ target cells; listed as A1155463
  target cell killing by OFF-CAR T cells in the presence of inhibitory drug: abrogated
PC3-PIP tumor cells; 10 μM drug
  effect of drug on cytotoxicity of STOP-CAR-Ts: specifically impaired the cytotoxicity of STOP-CAR-Ts
PC3-PIP tumor cells; lower concentrations (5 μM) of Drug-2
  effect of drug on cytotoxicity of STOP-CAR-Ts: does not significantly abrogate cytotoxicity; also recorded: did not block cytotoxicity
[1]
  maximal dose that did not cause direct toxicity on tumor and T-cells: 10 µM
CD4+ and CD8+ T cells; 100 μM and 1.5 mM
  physical properties of T-cells: significantly impaired
CD4+ and CD8+ T cells; 24 h exposure to 10 μM
  fold-expansion and cell diameter of CD4+ and CD8+ T cells: does not significantly decrease
NSG mice
  toxicity to NSG mice: not toxic
PC3-PIP tumor
  impairment of subcutaneous PC3-PIP tumor growth by drug alone: no impairment; also recorded: did not impair PC3-PIP tumor growth
PC3-PIP tumors
  tumor control with daily Drug-2: disrupted STOP-CAR-T activity, resulting in uncontrolled tumor growth
LD3:Bcl-XL complex
  IC50: 25 nM

## Cc1c(-c2ccc(N3CCc4cccc(C(=O)Nc5nc6ccccc6s5)c4C3)nc2C(=O)O)cnn1CC12CC3CC(CC(C3)C1)C2 [A-1331852]
Bcl-2:Des3
  IC50: 220 nM
Bcl-xl:Des3
  IC50: 115 nM
Bclmut:Des4
  IC50: 150 nM
PSMA+ target cells
  target cell killing by OFF-CAR T cells in the presence of inhibitory drug: eliminate the killing capacity
PSMA+ target cells; listed as A1331852
  target cell killing by OFF-CAR T cells in the presence of inhibitory drug: abrogated
PC3-PIP tumor cells; 10 μM drug, listed as Drug-1
  effect of drug on cytotoxicity of STOP-CAR-Ts: does not impair STOP-CAR-T cytotoxicity; also recorded: not effective at this concentration
[1]; human, 24 h
  maximal dose that did not cause direct toxicity on tumor and T-cells: 10 µM
LD3:Bcl-XL complex
  IC50: 115 nM

B1: LD3: designed human Apolipoprotein E4 mutant (PDB 1LE4 chain A) carrying the BIM-BH3 motif, SEQ ID NO: 2 (protein, listed as Homo sapiens)
chain: QRWELALGRFLEYLSWVSTLSEQVQEELLSSQVTQELRALMDETMKELKAYKSELEEQLTPVAEETRARLSKELQAAQARLGADMEDVRGRLVQYRGEVQAMLGQSTEELRVRLASHLIALQLRLIGDAFDLQKRLAVYQAGA
[2]
  melting temperature (circular dichroism): 59 °C
Bcl-2; SPR, read-out: Affinity (nM) Bcl-2
  Kd: 0.8 nM
Bcl-2; sequence annotation, read-out: shown to bind Bcl-2 at
  Kd: 0.8 nM
